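Grown in 96-well plates, cells were treated for 48 hours with each compound at five concentrations. Insufficient inhibition: endpoint recorded as highest concentration tested. TGI is the concentration that stops growth completely.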
Tests used:
Assay in all cases: growth of human tumour cells (NCI), 48 h
[1] = tested on: OVCAR-3 ovarian
[2] = tested on: HCT-15 colon
[3] = tested on: T-47D breast
[4] = tested on: SN12C renal
[5] = tested on: SF-295 CNS
[6] = tested on: HCT-116 colon
[7] = tested on: SNB-75 CNS
[8] = tested on: NCI-H23 lung
[9] = tested on: U251 CNS
[10] = tested on: COLO 205 colon
[11] = tested on: RPMI-8226 leukemia
[12] = tested on: DU-145 prostate
[13] = tested on: SF-539 CNS
[14] = tested on: SNB-19 CNS
[15] = tested on: MDA-MB-435
[16] = tested on: MDA-MB-231 breast
[17] = tested on: CAKI-1 renal
[18] = tested on: HT29 colon
[19] = tested on: RXF 393 renal
[20] = tested on: KM12 colon
[21] = tested on: HOP-62 NSCLC
[22] = tested on: NCI-H226 lung
[23] = tested on: A549 NSCLC
[24] = tested on: BT-549 breast
[25] = tested on: IGROV1 ovarian
[26] = tested on: MALME-3M melanoma
[27] = tested on: OVCAR-4 ovarian
[28] = tested on: A498 renal
[29] = tested on: MOLT-4 leukemia
[30] = tested on: SK-OV-3 ovarian
[31] = tested on: HOP-92 NSCLC
[32] = tested on: LOX IMVI melanoma
[33] = tested on: EKVX NSCLC
[34] = tested on: HCC-2998 colon
[35] = tested on: SK-MEL-5 melanoma
[36] = tested on: SK-MEL-2 melanoma
[37] = tested on: SK-MEL-28 melanoma
[38] = tested on: NCI-H460 lung
[39] = tested on: M14 melanoma
[40] = tested on: HS 578T breast
[41] = tested on: CCRF-CEM leukemia
[42] = tested on: SW-620 colon
[43] = tested on: PC-3 prostate
[44] = tested on: NCI-H522 lung
[45] = tested on: NCI/ADR-RES ovarian
[46] = tested on: UACC-257 melanoma
[47] = tested on: ACHN renal
[48] = tested on: SF-268 CNS
[49] = tested on: OVCAR-5 ovarian
[50] = tested on: TK-10 renal
[51] = tested on: MCF7 breast
[52] = tested on: UO-31 renal
[53] = tested on: UACC-62 melanoma
[54] = tested on: OVCAR-8 ovarian
[55] = tested on: 786-0 renal
[56] = tested on: MDA-N
[57] = tested on: K-562 leukemia
[58] = tested on: HL-60(TB) leukemia
[59] = tested on: SR leukemia

SMILES: CN(C)c1ccc(N=Nc2ccccn2)cc1
- TGI [1]: > 100 µM
- TGI [2]: > 100 µM
- TGI [3]: > 100 µM
- TGI [4]: > 100 µM
- TGI [5]: > 100 µM
- TGI [6]: > 100 µM
- TGI [7]: > 100 µM
- TGI [8]: 83.2 µM
- TGI [9]: 33 µM
- TGI [10]: 21.8 µM
- TGI [11]: > 100 µM
- TGI [12]: > 100 µM
- TGI [13]: > 100 µM
- TGI [14]: > 100 µM
- TGI [15]: > 100 µM
- TGI [16]: > 100 µM
- TGI [17]: > 100 µM
- TGI [18]: > 100 µM
- TGI [19]: > 100 µM
- TGI [20]: > 100 µM
- TGI [21]: > 100 µM
- TGI [22]: > 100 µM
- TGI [23]: > 100 µM
- TGI [24]: > 100 µM
- TGI [25]: > 100 µM
- TGI [26]: > 100 µM
- TGI [27]: > 100 µM
- TGI [28]: 94.7 µM
- TGI [29]: 40.9 µM
- TGI [30]: > 100 µM
- TGI [31]: > 100 µM
- TGI [32]: > 100 µM
- TGI [33]: > 100 µM
- TGI [34]: 59.7 µM
- TGI [35]: > 100 µM
- TGI [36]: > 100 µM
- TGI [37]: > 100 µM
- TGI [38]: > 100 µM
- TGI [39]: > 100 µM
- TGI [40]: > 100 µM
- TGI [41]: 91.2 µM
- TGI [42]: > 100 µM
- TGI [43]: 81.9 µM
- TGI [44]: > 100 µM
- TGI [45]: 66.1 µM
- TGI [46]: 25.7 µM
- TGI [47]: > 100 µM
- TGI [48]: > 100 µM
- TGI [49]: > 100 µM
- TGI [50]: > 100 µM
- TGI [51]: 14.6 µM
- TGI [52]: 79.8 µM
- TGI [53]: > 100 µM
- TGI [54]: > 100 µM
- TGI [55]: > 100 µM
- TGI [56]: > 100 µM
- TGI [57]: > 100 µM
- TGI [58]: 52.3 µM

SMILES: COc1ccc(CCNC(=O)Cc2cc(OC)c(OC)cc2CO)cc1OC
- TGI [1]: > 100 µM
- TGI [2]: > 100 µM
- TGI [3]: > 100 µM
- TGI [4]: > 100 µM
- TGI [5]: > 100 µM
- TGI [6]: > 100 µM
- TGI [7]: > 100 µM
- TGI [8]: > 100 µM
- TGI [9]: > 100 µM
- TGI [10]: > 100 µM
- TGI [11]: > 100 µM
- TGI [12]: > 100 µM
- TGI [13]: > 100 µM
- TGI [15]: > 100 µM
- TGI [16]: > 100 µM
- TGI [17]: > 100 µM
- TGI [18]: > 100 µM
- TGI [19]: > 100 µM
- TGI [20]: > 100 µM
- TGI [21]: > 100 µM
- TGI [22]: > 100 µM
- TGI [23]: > 100 µM
- TGI [24]: > 100 µM
- TGI [25]: > 100 µM
- TGI [27]: > 100 µM
- TGI [28]: > 100 µM
- TGI [29]: > 100 µM
- TGI [30]: > 100 µM
- TGI [31]: > 100 µM
- TGI [32]: > 100 µM
- TGI [33]: > 100 µM
- TGI [34]: > 100 µM
- TGI [35]: > 100 µM
- TGI [36]: > 100 µM
- TGI [37]: > 100 µM
- TGI [38]: > 100 µM
- TGI [39]: > 100 µM
- TGI [40]: > 100 µM
- TGI [41]: > 100 µM
- TGI [42]: > 100 µM
- TGI [43]: > 100 µM
- TGI [44]: > 100 µM
- TGI [45]: > 100 µM
- TGI [46]: > 100 µM
- TGI [47]: > 100 µM
- TGI [48]: > 100 µM
- TGI [49]: > 100 µM
- TGI [50]: > 100 µM
- TGI [51]: > 100 µM
- TGI [59]: > 100 µM
- TGI [52]: > 100 µM
- TGI [53]: > 100 µM
- TGI [54]: > 100 µM
- TGI [55]: > 100 µM
- TGI [56]: > 100 µM
- TGI [57]: > 100 µM
- TGI [58]: > 100 µM

SMILES: O=NNc1nc(-c2cccnc2)nc2ccccc12
- TGI [1]: > 100 µM
- TGI [2]: > 100 µM
- TGI [3]: > 100 µM
- TGI [4]: > 100 µM
- TGI [5]: > 100 µM
- TGI [6]: > 100 µM
- TGI [7]: > 100 µM
- TGI [8]: > 100 µM
- TGI [9]: > 100 µM
- TGI [10]: > 100 µM
- TGI [12]: > 100 µM
- TGI [13]: > 100 µM
- TGI [14]: > 100 µM
- TGI [16]: > 100 µM
- TGI [17]: > 100 µM
- TGI [18]: > 100 µM
- TGI [20]: > 100 µM
- TGI [21]: > 100 µM
- TGI [22]: > 100 µM
- TGI [23]: > 100 µM
- TGI [24]: > 100 µM
- TGI [25]: > 100 µM
- TGI [27]: > 100 µM
- TGI [28]: > 100 µM
- TGI [29]: > 100 µM
- TGI [30]: > 100 µM
- TGI [33]: > 100 µM
- TGI [34]: > 100 µM
- TGI [35]: > 100 µM
- TGI [37]: > 100 µM
- TGI [38]: > 100 µM
- TGI [39]: > 100 µM
- TGI [40]: > 100 µM
- TGI [41]: > 100 µM
- TGI [42]: > 100 µM
- TGI [43]: > 100 µM
- TGI [44]: > 100 µM
- TGI [45]: > 100 µM
- TGI [46]: > 100 µM
- TGI [47]: > 100 µM
- TGI [48]: > 100 µM
- TGI [49]: > 100 µM
- TGI [50]: > 100 µM
- TGI [51]: > 100 µM
- TGI [52]: 32.8 µM
- TGI [53]: > 100 µM
- TGI [54]: > 100 µM
- TGI [55]: > 100 µM
- TGI [56]: > 100 µM
- TGI [57]: > 100 µM
- TGI [58]: > 100 µM

SMILES: Cc1cccc(NC(=S)Nc2ccccc2Cl)n1
- TGI [1]: > 100 µM
- TGI [2]: > 100 µM
- TGI [3]: > 100 µM
- TGI [4]: > 100 µM
- TGI [5]: > 100 µM
- TGI [6]: > 100 µM
- TGI [7]: 52.7 µM
- TGI [9]: > 100 µM
- TGI [10]: > 100 µM
- TGI [11]: > 100 µM
- TGI [12]: > 100 µM
- TGI [13]: > 100 µM
- TGI [14]: 97.5 µM
- TGI [15]: > 100 µM
- TGI [17]: 96.4 µM
- TGI [18]: > 100 µM
- TGI [19]: 60 µM
- TGI [20]: 79.4 µM
- TGI [21]: 46.2 µM
- TGI [22]: > 100 µM
- TGI [23]: > 100 µM
- TGI [24]: > 100 µM
- TGI [25]: > 100 µM
- TGI [26]: 88.3 µM
- TGI [27]: 57.8 µM
- TGI [28]: 64.6 µM
- TGI [29]: > 100 µM
- TGI [30]: 51.8 µM
- TGI [32]: > 100 µM
- TGI [33]: 67.8 µM
- TGI [35]: > 100 µM
- TGI [36]: > 100 µM
- TGI [37]: > 100 µM
- TGI [38]: > 100 µM
- TGI [39]: > 100 µM
- TGI [40]: > 100 µM
- TGI [41]: > 100 µM
- TGI [42]: > 100 µM
- TGI [43]: > 100 µM
- TGI [45]: > 100 µM
- TGI [46]: 74.2 µM
- TGI [48]: 62 µM
- TGI [49]: > 100 µM
- TGI [50]: > 100 µM
- TGI [51]: > 100 µM
- TGI [59]: > 100 µM
- TGI [52]: > 100 µM
- TGI [53]: > 100 µM
- TGI [54]: 73.7 µM
- TGI [55]: > 100 µM
- TGI [56]: > 100 µM
- TGI [57]: > 100 µM
- TGI [58]: > 100 µM
